Test results as given in patent US20060004088A1, “Furan derivatives for preventing and curing osteoporosis and pharmaceutical compositions containing the same” (OCT INC., priority 2002, published 2006).
Entries after “also recorded” stand apart in the source; their conditions may differ.

How the values were obtained:
[1] = test system: MG-63 osteoblasts; assay: Proliferation of MG-63 osteoblasts (3H-thymidine incorporation); assay type: cell-based, human; settings: for Proliferation rate of MG-63 cells, %: 1% FBS, untreated control = 100; for proliferation rate of osteoblasts compared to a control not treated: text summary, concentration not stated
Source text: In the following tests, three kinds of cell lines were used. The human osteosarcoma cell lines, MG-63 (ATCC No. CRL-1427) and HOS (ATCC No. CRL-1543), and mouse muscle C2C12 muscle cells (ATCC No. CRL-1772) were purchased from ATCC (American Type Culture Collection, Rockville, USA), and cultured in Dulbecco's modified Eagle's medium (DMEM) supplemented with 10% fetal bovine serum (FBS).
In order to indirectly evaluate cytotoxicity of the Compound 1 and investigate effect of the Compound 1 naturally extracted on obsteoblast proliferation, proliferation of MG-63 osteoblasts was investigated by measuring the amount of ^3H-thymidine incorporated into cellular DNA upon DNA replication. The cells were aliquotted onto 24-well plates at a density of 2×10^4 cells per well. The next day, after exchanging culture medium to medium containing 1% FBS, the cells were treated with the compound 1 serially diluted at various concentrations and further cultured for 48 hrs. Four hours before finishing the culture of 48 hrs, ^3H-thymidine was added to the medium in an amount of 3 μCi per well. The cells were washed with phosphate buffer, and treated with 5% trichloroacetic acid (TCA) pre-cooled on ice. Each of the separated TCA-insoluble fractions was dissolved in 0.1 M NaOH. With a portion of each fraction, ^3H-thymidine uptake by the cells was measured using a liquid scintillation counter.

[2] = test system: osteoclasts; assay: Resorption activity of osteoclasts on calcium phosphate-coated plates (resorption pit area); assay type: cell-based, mice; settings: for Resorption activity of osteoclasts, %: control = 100; for area of resorption pits compared to the control: text summary, concentration not stated
Method: First, bone marrow cells were isolated, as follow. After sacrificing 7-9 week female mice by cervical dislocation, femur and tibia were excised aseptically while removing attached soft tissues. After cutting both ends of long bones, 1 ml of an enzyme solution, containing 0.1% collagenase (Gibco), 0.05% trypsin and 0.5 mM EDTA (Gibco), was injected to the bone marrow cavity at one end using a syringe with a 26-guage needle, and bone marrow was then collected. After shaking the recovered bone marrow for 30 min, bone marrow cells were collected, and cultured in α-minimum essential medium (α-MEM) supplemented with 10% FBS for 24 hrs. Then, non-adherent cells were collected, which are osteoclast pregenitors, aliquotted onto culture plates at a density of 2×10^5 cells per well, and cultured for 8 days in α-MEM supplemented with 20 ng/ml of macrophage-colony stimulating factor (M-CSF, Peprotech, USA) and 30 ng/ml RANKL (Peprotech, USA). During the 8 days of culturing, the cells were treated with the Compound 1. Thereafter, osteoclast formation was investigated by fixing the cultured cells and then carrying out TRAP staining, as described in the following Experimental Example 2.2. In addition, resorption activity of osteoclasts was investigated by measuring the absorption area after removing osteoclasts in cultures in calcium phosphate-coated plates, as described in Experimental Example 2.3, below.
The differentiated osteoclasts were cultured on calcium phosphate-coated plates (OAASTM, OCT, Korea) in order to evaluate resorption activity of the cells. After removing culture medium, to remove the adherent cells, the plates were washed with distilled water three times, and incubated in 5% sodium hypochlorite for 5 min. After washing again with distilled water and drying the plates, the area of formed resorption pits was calculated by means of an Image Pro Plus software.

[3] = test system: ovariectomized white mice with developed osteoporosis; assay: Therapeutic effect on osteoporosis, tibia histology; assay type: in vivo; settings: four weeks after ovariectomy, then oral 220 μl in 30 ml water for four weeks
Method: In order to evaluate effects of the compound of the present invention on treatment and prevention of osteoporosis, female white mice with osteoporosis induced by ovariectomy were used as a disease model. After ovariectomy, mice were administered with the compound of the present invention. Tibias were dissected from the mice, and observed histologically.
In order to evaluate therapeutic effect of the Compound 1 on osteoporosis, after ovariectomy, the mice were fed with solid feedstuff for four weeks. After checking progress of osteoporosis in the mice, a test group was administered with the Compound 1 for four weeks, according to the same method as described above, while a control group was fed with only solid feedstuff. Eight weeks after ovariectomy, tibia tissue specimens were prepared according to a method known the art.
The tibia tissue specimens prepared in the Experimental Example 3-2 were fixed in a Bouin's solution for about 24 hrs. Then, the tibia tissue specimens were decalcificated with 5% nitric acid for about 60 hrs in order to remove inorganic substances including calcium from the tibias, thus softening the tibias to the degree suitable for fracture. […]

[4] = test system: ovariectomized female white mice; assay: Preventive effect on osteoporosis, bone mineral densitometer; assay type: in vivo; settings: for Change in BMD, %: oral 10 mg per mouse
Method: After ovariectomy, female white mice weighing about 250 g were orally administered with 10 mg of the Compound 1 per mice for four weeks. Bone mineral density (BMD) was measured before the ovariectomy and every week during the administration of the Compound 1, using a bone mineral densitometer, XCT 540 Research SA made in Germany.
After anesthetizing the mice being bred in cages by intraperitoneal injection of a mixture of Ketamine HCl (ketara 10 mg/kg) and 2% xylazine HCl (Roupun 0.15 ml/kg), BMD measurement was made at a voxel size of 0.1×0.1 mm^2 and threshold value 280 mg/cm^2 for cancellous bone and 500 mg/cm^2 for compact bone. The analysis sites at the proximal tibias were determined by Scout scans (10 mm/sec), and BMD was measured at three slices at the determined sites by CT scans (7 mm/sec). BMD measurement was performed twice or more at the same every week during four weeks.

O=Cc1ccc(CO)o1 [Compound 1, 5-hydroxymethylfuran-2-carboxyaldehyde]
Proliferation rate of MG-63 cells, % ([1]; 10^−4 M Compound 1, 48 hrs): 105.50 ± 5.90% | Proliferation rate of MG-63 cells, % ([1]; 10^−5 M Compound 1, 48 hrs): 102.63 ± 8.53% | Proliferation rate of MG-63 cells, % ([1]; 10^−6 M Compound 1, 48 hrs): 105.56 ± 5.49% | Proliferation rate of MG-63 cells, % ([1]; 10^−7 M Compound 1, 48 hrs): 103.91 ± 5.81% | Proliferation rate of MG-63 cells, % ([1]; 10^−8 M Compound 1, 48 hrs): 101.38 ± 4.65% | proliferation rate of osteoblasts compared to a control not treated [1]: over 105% | proliferation rate of osteoblasts compared to a control not treated ([1]; listed as Example 1): ≥ 105% | Resorption activity of osteoclasts, % ([2]; 10^−4 M Compound 1, area of resorption pits): 52.34 ± 8.28% | Resorption activity of osteoclasts, % ([2]; 10^−5 M Compound 1, area of resorption pits): 46.92 ± 3.60% | Resorption activity of osteoclasts, % ([2]; 10^−6 M Compound 1, area of resorption pits): 41.75 ± 14.07% | Resorption activity of osteoclasts, % ([2]; 10^−7 M Compound 1, area of resorption pits): 61.46 ± 10.35% | Resorption activity of osteoclasts, % ([2]; 10^−8 M Compound 1, area of resorption pits): 66.03 ± 7.49% | area of resorption pits compared to the control [2]: about 50% | area of resorption pits compared to the control ([2]; listed as Example 1): inhibit bone resorption activity of osteoclasts | trabecular bone density, histology [3]: just a slight decrease in trabecular bone density; also recorded: no trabecular bone loss | BMD after four weeks of administration compared to before ovariectomy (in words) ([4]; oral 10 mg/day for four weeks after ovariectomy): increase in BMD; also recorded: remarkably increased bone mineral density (BMD) | Change in BMD, % ([4]; week 1 after ovariectomy, control −7.5): −2.5% | Change in BMD, % ([4]; week 2 after ovariectomy, control −11.6): −3.2% | Change in BMD, % ([4]; week 3 after ovariectomy, control −14.9): −1.8% | Change in BMD, % ([4]; week 4 after ovariectomy, control −18.6): 3.7%
